Target: Protein cereblon/DNA damage-binding protein 1 (Homo sapiens, UniProt Q96SW2)
Assay: Fluorescence Polarization (FP) Assay for Screening Compound Ligand Binders of CRBN-DDM: Measuring compound ligand binding to CRBN-DDB1 was carried out using an established sensitive and quantitative in vitro fluorescence polarization (FP) based binding assay. (See, I. J. Enyedy et al, J. Med. Chem., 44: 3134324, 2001). Compounds were dispensed from serially diluted DMSO stock into black 384-well compatible fluorescence polarization plates using an Echo acoustic dispenser. Compound binding to CRBN-DDB1 was measured by displacement of either a (−)-Thalidomide-Alexa Fluor® or Pornalidomide-fluorescein conjugated probe dye. A 20 μL mixture containing 400 nM CRBN-DDB1 and 5 nM probe dye in 50 mM Hepes, pH 7.4, 200 mM NaCl, 1% DMSO and 0.05% pluronic acid-127 acid was added to wells containing compound and incubated at room temperature for 60 min. Matching control wells excluding CRBN-DDB1 were used to correct for background fluorescence. Plates were read on an Envision plate reader with appropriate FP filter sets. […]
Type: protein assay

Protein cereblon/DNA damage-binding protein 1, sequence (Q96SW2 whole entry): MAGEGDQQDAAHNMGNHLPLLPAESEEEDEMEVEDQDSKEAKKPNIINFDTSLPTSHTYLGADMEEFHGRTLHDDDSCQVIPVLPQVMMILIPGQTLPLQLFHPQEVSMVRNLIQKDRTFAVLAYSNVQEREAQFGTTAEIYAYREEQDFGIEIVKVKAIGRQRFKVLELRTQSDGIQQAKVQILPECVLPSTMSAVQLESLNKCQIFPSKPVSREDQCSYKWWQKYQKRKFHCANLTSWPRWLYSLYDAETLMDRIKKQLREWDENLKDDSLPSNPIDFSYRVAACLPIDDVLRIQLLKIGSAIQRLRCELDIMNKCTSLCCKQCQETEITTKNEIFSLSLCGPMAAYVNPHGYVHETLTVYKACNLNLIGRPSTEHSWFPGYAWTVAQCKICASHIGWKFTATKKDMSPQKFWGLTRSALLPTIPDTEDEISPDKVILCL
Protein cereblon/DNA damage-binding protein 1, sequence (Q16531 whole entry, further chain): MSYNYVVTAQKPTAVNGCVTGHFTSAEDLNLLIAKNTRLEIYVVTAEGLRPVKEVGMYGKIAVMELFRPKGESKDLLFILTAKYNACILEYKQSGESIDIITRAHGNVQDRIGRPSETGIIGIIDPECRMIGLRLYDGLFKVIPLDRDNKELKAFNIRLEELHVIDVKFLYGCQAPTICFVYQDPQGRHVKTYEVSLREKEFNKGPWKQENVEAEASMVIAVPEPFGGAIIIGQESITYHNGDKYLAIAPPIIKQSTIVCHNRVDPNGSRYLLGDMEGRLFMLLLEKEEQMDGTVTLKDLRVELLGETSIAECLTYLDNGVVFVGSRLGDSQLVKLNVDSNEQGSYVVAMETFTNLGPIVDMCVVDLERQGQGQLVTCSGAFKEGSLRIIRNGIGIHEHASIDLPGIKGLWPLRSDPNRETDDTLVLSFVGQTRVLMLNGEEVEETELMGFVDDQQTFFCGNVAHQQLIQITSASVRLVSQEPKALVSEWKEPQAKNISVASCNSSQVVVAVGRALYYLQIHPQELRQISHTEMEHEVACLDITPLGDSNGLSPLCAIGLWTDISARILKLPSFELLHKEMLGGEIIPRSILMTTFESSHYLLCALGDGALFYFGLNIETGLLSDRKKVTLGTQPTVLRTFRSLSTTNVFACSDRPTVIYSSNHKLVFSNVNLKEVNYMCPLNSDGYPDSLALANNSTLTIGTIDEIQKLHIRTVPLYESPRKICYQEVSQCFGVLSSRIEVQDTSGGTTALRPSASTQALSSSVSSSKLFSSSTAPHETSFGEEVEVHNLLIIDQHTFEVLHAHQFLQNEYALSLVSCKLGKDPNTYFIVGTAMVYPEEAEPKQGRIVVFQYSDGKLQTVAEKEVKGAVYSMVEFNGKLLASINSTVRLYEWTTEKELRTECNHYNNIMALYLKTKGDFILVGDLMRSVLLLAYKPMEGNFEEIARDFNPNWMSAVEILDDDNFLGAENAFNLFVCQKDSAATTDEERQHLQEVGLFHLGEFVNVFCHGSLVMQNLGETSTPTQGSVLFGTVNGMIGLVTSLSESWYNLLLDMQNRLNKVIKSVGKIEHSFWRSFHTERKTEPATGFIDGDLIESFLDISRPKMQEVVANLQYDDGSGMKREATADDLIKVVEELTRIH

Structure (SMILES): Cn1c(NC2CCC(=O)NC2=O)nc2ccccc21 (stereo unspecified)
- Kd: > 100 µM

Reference: ChEMBL document CHEMBL5729355, “N/O-linked Degrons and Degronimers for protein degradation” (2022)
